Patent US20240277637A1, “CAPSAICIN DERIVATIVES IN THE TREATMENT OF IDIOPATHIC PULMONARY FIBROSIS” (aXichem AB, priority 2021, published 2024)

How the values were obtained:
Format in all cases: cell-based
[1] = test system: human bronchial epithelial cells; experiment: Clonogenic cell survival assay, bronchial epithelial cells with PDGF-AB (Example 3); conditions: 10 ng/ml PDGF-AB, 14 days; for effect on clonogenic survival / PDGF inhibition (words): 0-10 μM
Protocol: (§1) Primary isolated human bronchial epithelial cells (NHBE) were used in this assay sourced from the American Tissue Culture Collection (Normal, Human (ATCC® BEAS-2B™)) and were cultured up to passage 6. […].
A clonogenic cell survival assay determines the ability of a cell to proliferate indefinitely. Cells were plated with increasing numbers (102 to 5×10^4) in 25 cm^2 flasks. SU9518, SU9518, a known inhibitor PDGF that has shown the ability to reduce radiation-induced fibroblast and endothelial cell activation, and phenylcapsaicin were used as positive controls. The cells were incubated with 0-10 μM (3% DMSO aqueous) of phenylcapsaicin, SU9518, and compounds 1 and 3-7 separately in the presence of 10 ng/ml PDGF-AB (Sigma Aldrich). The flasks were returned to the incubator for 14 days, after which they were stained with crystal violet (Sigma Aldrich). The colonies were counted and the surviving percentage was determined for clonogenic survival after correcting for plating efficiency.

[2] = test system: human bronchial epithelial cells; experiment: Clonogenic cell survival assay, bronchial epithelial cells with PDGF-AB (Example 4); conditions: 10 ng/ml PDGF-AB, 14 days; for effect on clonogenic survival / PDGF inhibition (words): 0-10 μM
Protocol: as §1
The effects of Phenylcapsaicin (2) on clonogenic survival of bronchial epithelial cells, by plating the cells with increasing numbers (102 to 5×104) in 25 cm^2 flasks were investigated. SU9518* and Phenylcapsaicin were used as positive controls. The cells were incubated with 0-10 μM (3% DMSO aqueous) of Phenylcapsaicin, SU9518, and compounds 8-12 separately in the presence of 10 ng/ml PDGF-AB (Sigma Aldrich). The flasks were returned to the incubator for 14 days, after which they were stained with crystal violet (Sigma Aldrich). The colonies were counted and the surviving percentage was determined for clonogenic survival after correcting for plating efficiency. The synthetic analogs were all calculated at 100% purity for molar concentrations.

[3] = test system: human corneal epithelial cells; experiment: Clonogenic cell survival assay, corneal epithelial cells with PDGF-AB (Example 1); conditions: 10 ng/ml PDGF-AB, 14 days
Protocol: Primary isolated human corneal epithelial cells; Normal, Human cells (ATCC® PCS-700-010™) were maintained in culture at 37° C. with 5% CO2 and 95% humidity in serum reduced (5% fetal calf serum) modified promocell media (MPM) supplemented with 4 ng/ml fibronectin (FN), 2 ng/ml human recombinant vascular endothelial growth factor (VEGF) and 4 ng/ml basic fibroblast growth factor (bFGF).
A clonogenic cell survival assay determines the ability of a cell to proliferate indefinitely. The effects of phenylcapsaicin (2) on clonogenic survival of corneal epithelial cells was investigated by plating the cells with increasing numbers (102 to 5×104) in 25 cm^2 flasks. SU9518, a known inhibitor PDGF that has shown the ability to reduce radiation-induced fibroblast and endothelial cell activation, was used as the positive control. The cells were incubated with 0-10 μM of phenylcapsaicin and SU9518 separately in the presence of 10 ng/ml PDGF-AB. The flasks were returned to the incubator for 14 days, after which they were stained with crystal violet. The colonies were counted, and the surviving

[4] = test system: human bronchial epithelial cells; experiment: Clonogenic cell survival assay, bronchial epithelial cells with PDGF-AB (Example 2); conditions: 10 ng/ml PDGF-AB, 14 days
Protocol: Primary isolated human bronchial epithelial cells (NHBE) (Normal, Human (ATCC® BEAS-2B™)) were cultured up to passage 6. […].
A clonogenic cell survival assay determines the ability of a cell to proliferate indefinitely. The effects of phenylcapsaicin on clonogenic survival of bronchial epithelial cells was investigated by plating the cells with increasing numbers (10^2 to 5×10^4) in 25 cm^2 flasks. SU9518, a known inhibitor for PDGF which has shown the ability to reduce radiation-induced fibroblast and endothelial cell activation, was used as the positive control. The cells were incubated with 0-10 μM of phenylcapsaicin and SU9518 separately in the presence of 10 ng/ml PDGF-AB. The flasks were returned to the incubator for 14 days, after which they were stained with crystal violet. The colonies were counted, and the surviving percentage was determined for clonogenic survival after correcting for plating efficiency.

| SMILES | Clonogenic Survival Assay (percent) ([1]; 0.10 μM) [%] | Clonogenic Survival Assay (percent) ([1]; 0.50 μM) [%] | Clonogenic Survival Assay (percent) ([1]; 1.00 μM) [%] | Clonogenic Survival Assay (percent) ([1]; 2.00 μM) [%] | Clonogenic Survival Assay (percent) ([1]; 5.00 μM) [%] | Clonogenic Survival Assay (percent) ([1]; 10.00 μM) [%] | effect on clonogenic survival / PDGF inhibition (words) [2] | Clonogenic Survival Assay (percent) ([2]; 0.10 uM) [%] | Clonogenic Survival Assay (percent) ([2]; 0.50 uM) [%] | Clonogenic Survival Assay (percent) ([2]; 1.00 uM) [%] | Clonogenic Survival Assay (percent) ([2]; 2.00 uM) [%] | Clonogenic Survival Assay (percent) ([2]; 5.00 uM) [%] | Clonogenic Survival Assay (percent) ([2]; 10.00 uM) [%] | further results |
| --- | --- | --- | --- | --- | --- | --- | --- | --- | --- | --- | --- | --- | --- | --- |
| COc1cc(CNC(=O)CCCC/C=C/C(C)C)ccc1O [Compound 1, capsaicin] | 97 | 97 | 95 | 96 | 96 | 95 | no inhibition of PDGF was observed | 97 | 98 | 95 | 96 | 96 | 95 | effect on clonogenic survival / PDGF inhibition (words) [1]: did not show any PDGF inhibition; effect on clonogenic survival / PDGF inhibition (words) ([1]; listed as capsaicin): no inhibition of PDGF was observed; Clonogenic Survival Assay (percent) ([1]; 10.00 μM, listed as capsaicin): 95% |
| COc1ccc(C#CCCCCC(=O)NCc2ccc(O)c(OC)c2)cc1 [Compound 11, N-[(4-Hydroxy-3-methoxyphenyl)methyl]-7-(p-methoxyphenyl)-6-heptynamide] |  |  |  |  |  |  | higher reduction than the lead phenylcapsaicin | 72 | 57 | 51 | 33 | 28 | 21 | effect on clonogenic survival / PDGF inhibition (words) ([2]; listed as compound 11): further improved |
| COc1cc(CNC(=O)CCCCC#Cc2cccc3ccccc23)ccc1O [Compound 12, N-[(4-Hydroxy-3-methoxyphenyl)methyl]-7-(1-naphthyl)-6-heptynamide] |  |  |  |  |  |  |  | 81 | 79 | 61 | 53 | 48 | 32 |  |
| Cc1[nH]c(/C=C2\C(=O)Nc3ccc(Br)cc32)c(C)c1CCC(=O)O [SU9518, reference compound] | 80 | 65 | 59 | 41 | 33 | 22 |  | 80 | 65 | 59 | 41 | 33 | 22 | effect on clonogenic survival ([3]; 0-10 μM): dose dependent reduction in cell survival; surviving fraction of epithelial cells ([3]; 5 μM): 30%; effect on clonogenic survival ([4]; 0-10 μM): dose dependent reduction in cell survival; surviving fraction of epithelial cells ([4]; 5 μM): 33% |
